According to patent publication US9833497B2, “Human originated EGF domain proteins and use of the same” (CHENGDU SOURCEBIO LIMITED-LIABILITY COMPANY, priority 2013, dated 2017):

Key:
Type in all cases: cell-based
[1] = system: E. coli DH5α; assay: Antibacterial activity: MIC and growth curve against E. coli DH5α in 96-well plate; details: minimal inhibitory concentration against E. coli DH5α; 96-well plate, 5×10^5 CFU/mL, 37° C., judged after 8 h
In short: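 Log-phase bacteria (OD600 ~0.5) resuspended in LB at 5×10^5 CFU/mL, exposed to recombinant protein at 50, 25, 12.5 μg/mL final in triplicate, 37 °C shaking at 175 rpm. OD600 read every 30 min; MIC is lowest concentration showing no growth.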

[2] = system: E. coli BL21; assay: MIC against Gram-negative bacteria: E. coli BL21
In short: (§1)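 First, colonies from LB agar were grown in LB at 37° C, 185 rpm, to McFarland turbidity 0.5, then centrifuged and resuspended in fresh LB. Next, wells received 5×10^5 CFU/mL bacteria plus two-fold serially diluted EGF domain protein (triplicate). Finally, plates were shaken at 37° C and the no-growth concentration taken as MIC.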

[3] = system: Pseudomonas aeruginosa; assay: MIC against Gram-negative bacteria: Pseudomonas aeruginosa
In short: as §1

[4] = system: Klebsiella pneumonia; assay: MIC against Gram-negative bacteria: Klebsiella pneumonia
In short: as §1

[5] = system: Enterobacter cloacae; assay: MIC against Gram-negative bacteria: Enterobacter cloacae
In short: as §1

[6] = system: Aeromonas hydrophila; assay: MIC against Gram-negative bacteria: Aeromonas hydrophila
In short: as §1

[7] = system: Citrobacter diversus; assay: MIC against Gram-negative bacteria: Citrobacter diversus
In short: as §1

[8] = system: Moraxella catarrhalis; assay: MIC against Gram-negative bacteria: Moraxella catarrhalis
In short: as §1

[9] = system: Proteus mirabilis; assay: MIC against Gram-negative bacteria: Proteus mirabilis
In short: as §1

[10] = system: Proteus vulgaris; assay: MIC against Gram-negative bacteria: Proteus vulgaris
In short: as §1

[11] = system: Serratia marcescens; assay: MIC against Gram-negative bacteria: Serratia marcescens
In short: as §1

[12] = E. coli BL21, 96-well plate, 5×10^5 CFU/mL, 37° C., 10 h
[13] = Pseudomonas aeruginosa, 96-well plate, 5×10^5 CFU/mL, 37° C., 10 h
[14] = Klebsiella pneumonia, 96-well plate, 5×10^5 CFU/mL, 37° C., 10 h
[15] = Enterobacter cloacae, 96-well plate, 5×10^5 CFU/mL, 37° C., 10 h
[16] = Aeromonas hydrophila, 96-well plate, 5×10^5 CFU/mL, 37° C., 10 h
[17] = Citrobacter diversus, 96-well plate, 5×10^5 CFU/mL, 37° C., 10 h
[18] = Moraxella catarrhalis, 96-well plate, 5×10^5 CFU/mL, 37° C., 10 h
[19] = Proteus mirabilis, 96-well plate, 5×10^5 CFU/mL, 37° C., 10 h
[20] = Proteus vulgaris, 96-well plate, 5×10^5 CFU/mL, 37° C., 10 h
[21] = Serratia marcescens, 96-well plate, 5×10^5 CFU/mL, 37° C., 10 h
[22] = 10 h cultivation at 37° C., 5×10^5 CFU/mL, two-fold serial dilution
[23] = 96-well plate, 5×10^5 CFU/mL, 37° C., 10 h

PRT1443 (NHMPCPENLNGYCIHGKCEFIYSTQKASCRCESGYTGQHCE; listed as Homo sapiens)
50 µg/mL: MIC against E. coli BL21 ([2]; E. coli BL21, 5×10^5 CFU/mL, 10 h cultivation at 37° C.) | MIC against A. hydrophila ([6]; Aeromonas hydrophila, 5×10^5 CFU/mL, 10 h cultivation at 37° C.) | MIC against S. marcescens ([11]; Serratia marcescens, 5×10^5 CFU/mL, 10 h cultivation at 37° C.)
25 µg/mL: MIC [1] | MIC against P. aeruginosa ([3]; Pseudomonas aeruginosa, 5×10^5 CFU/mL, 10 h cultivation at 37° C.) | MIC against E. cloacae ([5]; Enterobacter cloacae, 5×10^5 CFU/mL, 10 h cultivation at 37° C.) | MIC against C. diversus ([7]; Citrobacter diversus, 5×10^5 CFU/mL, 10 h cultivation at 37° C.) | MIC against M. catarrhalis ([8]; Moraxella catarrhalis, 5×10^5 CFU/mL, 10 h cultivation at 37° C.) | MIC against P. vulgaris ([10]; Proteus vulgaris, 5×10^5 CFU/mL, 10 h cultivation at 37° C.)
12.5 µg/mL: MIC against K. pneumonia ([4]; Klebsiella pneumonia, 5×10^5 CFU/mL, 10 h cultivation at 37° C.) | MIC against P. mirabilis ([9]; Proteus mirabilis, 5×10^5 CFU/mL, 10 h cultivation at 37° C.)

PRT1321 (AIDECELDMRGGCHTDALCSYVGPGQSRCTCKLGFAGDGYQCS; listed as Homo sapiens)
100 µg/mL: MIC against P. vulgaris [10, 20]
12.5 µg/mL: MIC against E. coli BL21 [2, 12] | MIC against E. cloacae [5, 15] | MIC against C. diversus [7, 17] | MIC against P. mirabilis [9, 19] | MIC against S. marcescens [11, 21]
25 µg/mL: MIC against K. pneumonia [4, 14]
50 µg/mL: MIC [1] | MIC against P. aeruginosa [3, 13] | MIC against A. hydrophila [6, 16] | MIC against M. catarrhalis [8, 18]

PRT896 (EVNECNSNPCVHGACRDSLNGYKCDCDPGWSGTNCD; listed as Homo sapiens)
12.5 µg/mL: MIC ([4]; K. pneumonia, 10 h cultivation at 37° C.) | MIC ([6]; A. hydrophila, 10 h cultivation at 37° C.) | MIC ([8]; M. catarrhalis, 10 h cultivation at 37° C.) | MIC ([11]; S. marcescens, 10 h cultivation at 37° C.)
50 µg/mL: MIC ([2]; E. coli BL21, 10 h cultivation at 37° C.) | MIC ([5]; E. cloacae, 10 h cultivation at 37° C.) | MIC ([7]; C. diversus, 10 h cultivation at 37° C.) | MIC ([10]; P. vulgaris, 10 h cultivation at 37° C.)
25 µg/mL: MIC [1] | MIC ([3]; P. aeruginosa, 10 h cultivation at 37° C.) | MIC ([9]; P. mirabilis, 10 h cultivation at 37° C.)

PRT1270 (DVDECSLDRTCDHSCINHPGTFACACNRGYTLYGFTHCG; listed as Homo sapiens)
50 µg/mL: MIC [1] | MIC against P. aeruginosa [3, 13] | MIC against E. cloacae [5, 15] | MIC against P. mirabilis [9, 19]
12.5 µg/mL: MIC against E. coli BL21 [2, 12] | MIC against K. pneumonia [4, 14] | MIC against C. diversus [7, 17] | MIC against S. marcescens [11, 21]
25 µg/mL: MIC against A. hydrophila [6, 16] | MIC against M. catarrhalis [8, 18] | MIC against P. vulgaris [10, 20]

PRT244 (TCAMINCQYSCEDTEEGPQCLCPSSGLRLAPNGRDCL; listed as Homo sapiens)
50 µg/mL: MIC [1]
25 µg/mL: MIC (μg/mL) A. hydrophila ([6]; A. hydrophila, 10 h cultivation at 37° C., 5×10^5 CFU/mL) | MIC (μg/mL) M. catarrhalis ([8]; M. catarrhalis, 10 h cultivation at 37° C., 5×10^5 CFU/mL) | MIC (μg/mL) P. vulgaris ([10]; P. vulgaris, 10 h cultivation at 37° C., 5×10^5 CFU/mL)
12.5 µg/mL: MIC (μg/mL) E. coli BL21 ([2]; E. coli BL21, 10 h cultivation at 37° C., 5×10^5 CFU/mL) | MIC (μg/mL) P. aeruginosa ([3]; P. aeruginosa, 10 h cultivation at 37° C., 5×10^5 CFU/mL) | MIC (μg/mL) K. pneumonia ([4]; K. pneumonia, 10 h cultivation at 37° C., 5×10^5 CFU/mL) | MIC (μg/mL) E. cloacae ([5]; E. cloacae, 10 h cultivation at 37° C., 5×10^5 CFU/mL) | MIC (μg/mL) C. diversus ([7]; C. diversus, 10 h cultivation at 37° C., 5×10^5 CFU/mL) | MIC (μg/mL) P. mirabilis ([9]; P. mirabilis, 10 h cultivation at 37° C., 5×10^5 CFU/mL) | MIC (μg/mL) S. marcescens ([11]; S. marcescens, 10 h cultivation at 37° C., 5×10^5 CFU/mL)

PRT1093 (RKDWCESQPCQSRGRCINLWLSYQCDCHRPYEGPNCL; listed as Homo sapiens)
12.5 µg/mL: MIC [1] | MIC P. aeruginosa [3, 22] | MIC E. cloacae [5, 22] | MIC M. catarrhalis [8, 22] | MIC S. marcescens [11, 22]
50 µg/mL: MIC E. coli BL21 [2, 22] | MIC K. pneumonia [4, 22] | MIC A. hydrophila [6, 22] | MIC P. vulgaris [10, 22]
25 µg/mL: MIC C. diversus [7, 22] | MIC P. mirabilis [9, 22]

PRT491 (LDICSKNPCHNGGLCEEISQEVRGDVFPSYTCTCLKGYAGNHCE; listed as Homo sapiens)
100 µg/mL: MIC against A. hydrophila [6, 23]
50 µg/mL: MIC against P. aeruginosa [3, 23] | MIC against E. cloacae [5, 23] | MIC against C. diversus [7, 23] | MIC against P. mirabilis [9, 23]
25 µg/mL: MIC against E. coli BL21 [2, 23] | MIC against P. vulgaris [10, 23]
12.5 µg/mL: MIC [1] | MIC against K. pneumonia [4, 23] | MIC against M. catarrhalis [8, 23] | MIC against S. marcescens [11, 23]
